Assay results published in patent US10196369B2, “Spirocyclic EBI2 modulators” (Sanford Burnham Prebys Medical Discovery Institute, priority 2013, dated 2019).

Each compound was assayed against EBI2 (Homo sapiens, UniProt P32249) (assay: Cell-based luminescent assay of EBI2 modulation (7a,25-OHC stimulated)). Settings: 7a,25-OHC final assay concentration 80 nM, 60 minute incubation.
Outline: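 Cells expressing EBI2 were plated overnight, then treated 60 min at 37 °C with compound (final 4-5 uM) plus 7a,25-OHC (80 nM final). Detection reagent was added for 60 min at 25 °C in the dark, with luminescence read-out. Values were normalized between neutral and stimulator controls and corrected for plate patterns.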

Chain of EBI2 (P32249 whole entry): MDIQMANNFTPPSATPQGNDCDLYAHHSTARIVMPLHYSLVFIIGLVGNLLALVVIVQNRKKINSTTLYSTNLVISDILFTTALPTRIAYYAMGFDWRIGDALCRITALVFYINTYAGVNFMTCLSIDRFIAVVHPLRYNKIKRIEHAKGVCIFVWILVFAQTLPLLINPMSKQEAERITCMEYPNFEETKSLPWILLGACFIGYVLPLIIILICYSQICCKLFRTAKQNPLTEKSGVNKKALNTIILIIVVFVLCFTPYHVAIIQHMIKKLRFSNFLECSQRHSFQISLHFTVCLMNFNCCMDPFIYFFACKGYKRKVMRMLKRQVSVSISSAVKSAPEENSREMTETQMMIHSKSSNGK

Q: For `O=C(/C=C/c1ccc(Br)cc1)N1CC2(CCN(Cc3ccc(F)cc3)CC2)C1` [Compound C25, (2E)-3-(4-bromophenyl)-1-{7-[(4-fluorophenyl)methyl]-2,7-diazaspiro[3.5]non-2-yl}prop-2-en-1-one], which IC50 is on record?
A: Its IC50 is 100 to 500 nM.

Q: Which IC50 does the source give for `O=C(c1ccc(Cl)cc1)N1CCC2(CC1)CN(C(=O)c1cc3ccc(Br)cc3[nH]1)C2` [Compound C59, 6-bromoindol-2-yl 7-[(4-chlorophenyl)carbonyl]-2,7-diazaspiro[3.5]non-2-yl ketone] here?
A: Its IC50 is 500 to 5000 nM.

Q: For `O=C(C#Cc1ccc(F)cc1)N1CC2(CCN(C(=O)c3ccc(C(F)(F)F)cc3)CC2)C1` [Compound C96, 3-(4-fluorophenyl)-1-(7-{[4-(trifluoromethyl)phenyl]carbonyl}-2,7-diazaspiro[3.5]non-2-yl)prop-2-yn-1-one], which IC50 is on record?
A: Its IC50 is less than 100 nM.

Q: `O=C(/C=C/c1ccc(Br)cc1)N1CC2(CCN(C(=O)c3ccc(F)cc3)CC2)C1` [Compound C20, (2E)-3-(4-bromophenyl)-1-{7-[(4-fluorophenyl)carbonyl]-2,7-diazaspiro[3.5]non-2-yl}prop-2-en-1-one] was tested. Which IC50 did it give?
A: The IC50 was less than 100 nM.

Q: Which IC50 does the source give for `O=C(c1ccc(F)cc1)N1CCC2(CC1)CN(C(=O)c1cc3cc(Cl)ccc3[nH]1)C2` [Compound C38, 5-chloroindol-2-yl 7-[(4-fluorophenyl)carbonyl]-2,7-diazaspiro[3.5]non-2-yl ketone] here?
A: The IC50 was 100 to 500 nM.

Q: `O=C(c1cc2ccc(Br)cc2[nH]1)N1CC2(CCN(Cc3ccc(C(F)(F)F)cc3)CC2)C1` [Compound C63, 6-bromoindol-2-yl 7-{[4-(trifluoromethyl)phenyl]methyl}-2,7-diazaspiro[3.5]non-2-yl ketone] was tested. Which IC50 did it give?
A: The IC50 was 500 to 5000 nM.

Q: For `O=C(C#Cc1ccc(F)cc1)N1CCC2(CC1)CN(C(=O)c1ccc(C(F)(F)F)cc1)C2` [Compound C88, 3-(4-fluorophenyl)-1-(2-{[4-(trifluoromethyl)phenyl]carbonyl}-2,7-diazaspiro[3.5]non-7-yl)prop-2-yn-1-one], which IC50 is on record?
A: The IC50 was less than 100 nM.

Q: `O=C(C#Cc1ccc(Cl)cc1)N1CCC2(CC1)CN(Cc1ccc(C(F)(F)F)cc1)C2` [Compound C78, 3-(4-chlorophenyl)-1-(2-{[4-(trifluoromethyl)phenyl]methyl}-2,7-diazaspiro[3.5]non-7-yl)prop-2-yn-1-one] was tested. Which IC50 did it give?
A: The IC50 was less than 100 nM.

Q: With `COc1ccc(C(=O)N2CCC3(CC2)CN(C(=O)C#Cc2ccc(Cl)cc2)C3)cc1` [Compound C91, 3-(4-chlorophenyl)-1-{7-[(4-methoxyphenyl)carbonyl]-2,7-diazaspiro[3.5]non-2-yl}prop-2-yn-1-one] as the compound, how does the IC50 read?
A: The IC50 was less than 100 nM.

Q: With `O=C(/C=C/c1ccc(Br)cc1)N1CCC2(CC1)CN(C(=O)c1ccc(C(F)(F)F)cc1)C2` [Compound C54, (2E)-3-(4-bromophenyl)-1-(2-{[4-(trifluoromethyl)phenyl]carbonyl}-2,7-diazaspiro[3.5]non-7-yl)prop-2-en-1-one] as the compound, how does the IC50 read?
A: The IC50 was less than 100 nM.

Q: Which IC50 does the source give for `O=C(C#Cc1ccc(Cl)cc1)N1CC2(CCN(C(=O)c3ccc(Cl)cc3)CC2)C1` [Compound C84, 3-(4-chlorophenyl)-1-{7-[(4-chlorophenyl)carbonyl]-2,7-diazaspiro[3.5]non-2-yl}prop-2-yn-1-one] here?
A: Its IC50 is less than 100 nM.

Q: `O=C(c1ccc(C(F)(F)F)cc1)N1CCC2(CC1)CN(C(=O)c1cc3ccc(Br)cc3[nH]1)C2` [Compound C58, 6-bromoindol-2-yl 7-{[4-(trifluoromethyl)phenyl]carbonyl}-2,7-diazaspiro[3.5]non-2-yl ketone] was tested. Which IC50 did it give?
A: The IC50 was 500 to 5000 nM.

Q: `O=C(C#Cc1ccc(Br)cc1)N1CCC2(CC1)CN(Cc1ccc(Br)cc1)C2` [Compound C72, 3-(4-bromophenyl)-1-{2-[(4-bromophenyl)methyl]-2,7-diazaspiro[3.5]non-7-yl}prop-2-yn-1-one] was tested. Which IC50 did it give?
A: The IC50 was less than 100 nM.

Q: Which IC50 does the source give for `O=C(/C=C/c1ccc(Br)cc1)N1CC2(CCN(C(=O)c3cccc(Br)c3)CC2)C1` [Compound C2, (2E)-3-(4-bromophenyl)-1-{7-[(3-bromophenyl)carbonyl]-2,7-diazaspiro[3.5]non-2-yl}prop-2-en-1-one] here?
A: The IC50 was less than 100 nM.

Q: For `O=C(/C=C/c1ccc(Br)cc1)N1CCC2(CC1)CN(C(=O)c1ccc(F)cc1C(F)(F)F)C2` [Compound C52, (2E)-3-(4-bromophenyl)-1-(2-{[4-fluoro-2-(trifluoromethyl)phenyl]carbonyl}-2,7-diazaspiro[3.5]non-7-yl)prop-2-en-1-one], which IC50 is on record?
A: The IC50 was less than 100 nM.

Q: `O=C(c1cc2ccc(Br)cc2[nH]1)N1CC2(CCN(C(=O)c3ccc(F)cc3C(F)(F)F)CC2)C1` [Compound C61, 6-bromoindol-2-yl 7-{[4-fluoro-2-(trifluoromethyl)phenyl]carbonyl}-2,7-diazaspiro[3.5]non-2-yl ketone] was tested. Which IC50 did it give?
A: Its IC50 is 100 to 500 nM.

Q: For `O=C(c1ccc(-c2nnn[nH]2)cc1)N1CC2(CCN(C(=O)c3cc4cc(Cl)ccc4[nH]3)CC2)C1` [Compound C16, 5-chloroindol-2-yl 2-[(4-(1H-1,2,3,4-tetraazol-5-yl)phenyl)carbonyl]-2,7-diazaspiro[3.5]non-7-yl ketone], which IC50 is on record?
A: Its IC50 is 500 to 5000 nM.

Q: Which IC50 does the source give for `O=C(C#Cc1ccc(Br)cc1)N1CCC2(CC1)CN(C(=O)c1ccc(F)cc1)C2` [Compound C67, 3-(4-bromophenyl)-1-{2-[(4-fluorophenyl)carbonyl]-2,7-diazaspiro[3.5]non-7-yl}prop-2-yn-1-one] here?
A: The IC50 was 500 to 5000 nM.

Q: How did the IC50 turn out when `COc1ccc(C(=O)N2CC3(CCN(C(=O)C#Cc4ccc(F)cc4)CC3)C2)cc1` [Compound C89, 3-(4-fluorophenyl)-1-{2-[(4-methoxyphenyl)carbonyl]-2,7-diazaspiro[3.5]non-7-yl}prop-2-yn-1-one] was run?
A: The IC50 was 100 to 500 nM.

Q: For `O=C(C#Cc1ccc(Br)cc1)N1CCC2(CC1)CN(Cc1ccc(F)cc1)C2` [Compound C68, 3-(4-bromophenyl)-1-{2-[(4-fluorophenyl)methyl]-2,7-diazaspiro[3.5]non-7-yl}prop-2-yn-1-one], which IC50 is on record?
A: The IC50 was less than 100 nM.

Q: Which IC50 does the source give for `O=C(C#Cc1ccc(Cl)cc1)N1CCC2(CC1)CN(C(=O)c1ccc(Cl)cc1)C2` [Compound C76, 3-(4-chlorophenyl)-1-{2-[(4-chlorophenyl)carbonyl]-2,7-diazaspiro[3.5]non-7-yl}prop-2-yn-1-one] here?
A: Its IC50 is less than 100 nM.

Q: With `O=C(C#Cc1ccc(Cl)cc1)N1CC2(CCN(Cc3ccc(Cl)cc3)CC2)C1` [Compound C85, 3-(4-chlorophenyl)-1-{7-[(4-chlorophenyl)methyl]-2,7-diazaspiro[3.5]non-2-yl}prop-2-yn-1-one] as the compound, how does the IC50 read?
A: The IC50 was 100 to 500 nM.

Q: Which IC50 does the source give for `O=C(c1ccc(C(F)(F)F)c(F)c1)N1CC2(CCN(C(=O)c3cc4cc(Cl)ccc4[nH]3)CC2)C1` [Compound C13, 5-chloroindol-2-yl 2-{[3-fluoro-4-(trifluoromethyl)phenyl]carbonyl}-2,7-diazaspiro[3.5]non-7-yl ketone] here?
A: Its IC50 is 100 to 500 nM.

Q: How did the IC50 turn out when `O=C(c1cc2cc(Cl)ccc2[nH]1)N1CCC2(CC1)CN(Cc1ccc(F)cc1)C2` [Compound C17, 5-chloroindol-2-yl 2-[(4-fluorophenyl)methyl]-2,7-diazaspiro[3.5]non-7-yl ketone] was run?
A: The IC50 was less than 100 nM.

Q: How did the IC50 turn out when `O=C(c1cc2cc(Br)ccc2[nH]1)N1CC2(CCN(Cc3ccc(Cl)cc3)CC2)C1` [Compound C49, 5-bromoindol-2-yl 7-[(4-chlorophenyl)methyl]-2,7-diazaspiro[3.5]non-2-yl ketone] was run?
A: Its IC50 is 500 to 5000 nM.

Q: Which IC50 does the source give for `COc1ccc(CN2CC3(CCN(C(=O)C#Cc4ccc(Br)cc4)CC3)C2)cc1` [Compound C75, 3-(4-bromophenyl)-1-{2-[(4-methoxyphenyl)methyl]-2,7-diazaspiro[3.5]non-7-yl}prop-2-yn-1-one] here?
A: Its IC50 is 100 to 500 nM.
